Measured values published in patent publication US8178506B2, “Oligomeric compounds and compositions for use in modulation of small non-coding RNAs” (Regulus Therapeutics Inc., priority 2003, dated 2012).
In the oligonucleotide strings, read from the 5' end, every base follows the letter of its sugar. An asterisk marks phosphorothioate; unmarked linkages are phosphodiester. Other units and linkages are bracketed, terminal groups are in braces. A string of capitals states the bases alone. e = 2'-O-(2-methoxyethyl) (MOE); [5mC] = 5-methylcytosine; d = 2'-deoxy (DNA)

What was measured:
HuVECs = test: Endothelial tube formation assay in HuVECs; conditions: for tube formation: 75 nM; for % Activity Relative to UTC (tube formation): 75 nM oligomeric compound
PEPCK-c = PEPCK-c mRNA expression in HepG2 cells; assay type: cell-based, human; conditions: for PEPCKc mRNA expression: Experiment 2, insulin treated: HepG2 cells transfected with oligomeric compound, 1 nM insulin for four hours, UTC + 1 nM insulin = 100
Description: (§1) Approximately 28 hours after transfection, the cells are subjected to serum starvation for a period of 12 to 16 hours, using serum-free growth medium. Following serum starvation, cells are treated with 1 nM insulin (insulin-treated) or are left untreated (basal conditions) for approximately four hours. At the same time, untreated control cells in both plates are treated with 100 nM insulin to determine the maximal insulin response. Following insulin treatment (forty-eight hours after transfection), total RNA is harvested from all samples, and the amount of total RNA from each sample is determined using a Ribogreen assay (Invitrogen Corporation, Carlsbad, Calif.). Real-time PCR is performed on the total RNA samples using primer/probe sets for three insulin responsive genes: insulin-like growth factor binding protein-1 (IGFBP-1), cytosolic PEPCK (PEPCK-C), and follistatin. Gene expression levels obtained by real-time PCR are normalized for total RNA content in the samples.
(§2) Oligomeric compounds of the present invention were tested for their effects on insulin signaling in HepG2 cells. HepG2 cells were plated at 7500 cells/well in collagen coated 96-well plates. The following day, cells were transfected with oligomeric compounds targeting miRNAs using 100 nM oligomeric compound in LIPOFECTIN™ (Invitrogen Corporation, Carlsbad, Calif.) in two 96-well plates. The oligomeric compounds were tested in triplicate on each 96-well plate, except for positive and negative controls, which were measured up to six times per plate. At the end of transfection, the transfection medium was replaced by regular growth medium. Twenty-eight hours post-transfection, the cells were subjected to overnight (sixteen to eighteen hours) serum starvation using serum free growth medium. Forty-four hours post-transfection, the cells in the transfected wells were treated with either no insulin (“basal” Experiment 1, for identification of insulin-mimetic compounds) or with 1 nM insulin (“insulin treated” Experiment 2, for identification of insulin sensitizers) for four hours. At the same time, in both plates, cells in some of the un-transfected control wells are treated with 100 nM insulin to determine maximal insulin response. At the end of the insulin or no-insulin treatment (forty-eight hours post-transfection), total RNA is isolated from both the basal and insulin treated (1 nM) 96-well plates, and the amount of total RNA from each sample is determined using a Ribogreen assay (Molecular Probes, Eugene, Oreg.). Real-time PCR is performed on all the total RNA samples using primer/probe sets for three insulin responsive genes: PEPCK-c, IGFBP-1 and follistatin. Expression levels for each gene are normalized to total RNA, and values+standard deviation are expressed relative to the transfectant only untreated control (UTC) and negative control compounds.
(§3) Protocols for treatment of HepG2 cells and transfection of oligomeric compounds are as described in Example 18. Also as described in Example 18, forty-four hours post-transfection, the cells in the transfected wells were treated with either no insulin (“basal” Experiment 3 (below), for identification of insulin-mimetic compounds) or with 1 nM insulin (“insulin treated” Experiment 4 (below), for identification of insulin sensitizers) for four hours. At the same time, in both plates, cells in some of the un-transfected control wells are treated with 100 nM insulin to determine maximal insulin response. At the end of the insulin or no-insulin treatment (forty-eight hours post-transfection), total RNA is isolated from both the basal and insulin treated (1 nM) 96-well plates, and the amount of total RNA from each sample is determined using a Ribogreen assay (Molecular Probes, Eugene, Oreg.).

IGFBP-1 = IGFBP-1 mRNA expression in HepG2 cells; assay type: cell-based, human; conditions: for IGFBP1 mRNA expression: Experiment 2, insulin treated: HepG2 cells transfected with oligomeric compound, 1 nM insulin for four hours, UTC + 1 nM insulin = 100
Description: as §1, §2, §3

follistatin = test: Follistatin mRNA expression in HepG2 cells; assay type: cell-based, human; conditions: for Follistatin mRNA expression: Experiment 2, insulin treated: HepG2 cells transfected with oligomeric compound, 1 nM insulin for four hours, UTC + 1 nM insulin = 100
Description: as §1, §2, §3

HeLa cells = test: Cell cycle assay in HeLa cells; assay type: cell-based, human; conditions: HeLa cells; for % cells in cell cycle phase: G1 / % cells in cell cycle phase: G2/M / % cells in cell cycle phase: S / % cells in cell cycle phase: aneuploid / % cells in cell cycle phase: subG1: 48 hours after treatment, relative to untreated control (UTC=100)
T47D cells = test: Caspase-3 activity assay (apoptosis) in T47D cells; conditions: T47D cells, 48 hours; for Fold Increase over UTC (caspase activity): 200 nM, relative to untreated control; for Fold Increase over UTC (caspase-3 activity, apoptosis): 200 nM oligomeric compound
[1] = tested on: BJ, B16-F10, T47D, T47Dp53 and HeLa cells; test: Cell cycle assay (propidium iodide flow cytometry), cell line panel; assay type: cell-based; conditions: 150 nM oligomeric compound, 4.5 μg/ml LIPOFECTIN, after 72 hours, propidium iodide flow cytometry
[2] = 150 nM oligomeric compound, 24 hours, relative to untreated control (UTC = 100)
[3] = Experiment 3, basal (no insulin), HepG2 cells, 48 hours post-transfection
[4] = Experiment 4, insulin-sensitization: HepG2 cells treated with 1 nM insulin for four hours, 48 h post-transfection, mRNA by real-time PCR
[5] = 150 nM, 48 hours, relative to untreated control

ATCCAATCAGTTCCTGATGCAGTA (chemistry not given here) [ISIS 327966]
tube formation (HuVECs): suppressed tube formation

328397 (antisense eT*eT*eG*eA*eT*d[5mC]*d[5mC]*dA*dT*dA*dT*dG*d[5mC]*dA*dA*e[5mC]*eA*eA*eG*eG) [compound 328397]
PEPCKc mRNA expression (PEPCK-c): 76 | IGFBP1 mRNA expression (IGFBP-1): 57 | Follistatin mRNA expression (follistatin): 75 | % cells aneuploid (HeLa cells; [2]): 91% | % cells in cell cycle phase G1 (HeLa cells; [2]): 93% | % cells in cell cycle phase G2/M (HeLa cells; [2]): 142% | % cells in cell cycle phase S (HeLa cells; [2]): 86% | % cells in cell cycle phase subG1 (HeLa cells; [2]): 134% | % cells in cell cycle phase: G1 (HeLa cells; 150 nM oligomeric compound): 97% | % cells in cell cycle phase: G2/M (HeLa cells; 150 nM oligomeric compound): 109% | % cells in cell cycle phase: S (HeLa cells; 150 nM oligomeric compound): 101% | % cells in cell cycle phase: aneuploid (HeLa cells; 150 nM oligomeric compound): 96% | % cells in cell cycle phase: subG1 (HeLa cells; 150 nM oligomeric compound): 74% | Fold Increase over UTC (caspase activity) (T47D cells): 1.2

AAAGTGTCAGATACGGTGTGG (anti-miR; chemistry not fully specified) [ISIS 327944]
tube formation (HuVECs): suppressed tube formation

327894 (antisense eA*eT*eA*e[5mC]*eA*eT*eA*e[5mC]*eT*eT*e[5mC]*eT*eT*eT*eA*e[5mC]*eA*eT*eT*e[5mC]*e[5mC]*eA) [compound 327894]
% Activity Relative to UTC (tube formation) (HuVECs; Table 56): 100.0%

328384 (eT*e[5mC]*eA*e[5mC]*eG*dT*dG*dG*dA*dG*dA*dG*dG*dA*dG*eT*eT*eA*eA*eA; antisense) [compound 328384]
PEPCK-c (% UTC) (PEPCK-c; [3]): 142 % UTC | PEPCK-c (% UTC) (PEPCK-c; [4]): 114 % UTC | IGFBP-1 (% UTC) (IGFBP-1; [3]): 139 % UTC | IGFBP-1 (% UTC) (IGFBP-1; [4]): 102 % UTC | Follistatin (% UTC) (follistatin; [3]): 110 % UTC | Follistatin (% UTC) (follistatin; [4]): 121 % UTC | Fold Increase over UTC (caspase-3 activity, apoptosis) (T47D cells; experiment of Table 11): 1.0 fold

328649 (eG*eT*eA*eG*eA*dT*dA*dA*d[5mC]*dT*dA*dA*dA*d[5mC]*dA*e[5mC]*eT*eA*e[5mC]*e[5mC]; antisense) [compound 328649]
PEPCKc mRNA expression (PEPCK-c): 86 | IGFBP1 mRNA expression (IGFBP-1): 115 | Follistatin mRNA expression (follistatin): 69 | Fold Increase over UTC (caspase-3 activity, apoptosis) (T47D cells; experiment of Table 10): 1.0 fold

328423 (antisense e[5mC]*e[5mC]*eA*e[5mC]*eA*dT*dA*dT*dA*d[5mC]*dA*dT*dA*dT*dA*eT*eA*e[5mC]*eG*e[5mC]) [compound 328423]
PEPCKc mRNA expression (PEPCK-c): 77 | IGFBP1 mRNA expression (IGFBP-1): 69 | Follistatin mRNA expression (follistatin): 114 | G1 (percentage of cells in phase of the cell cycle) [1]: 52.9% | G2/M (percentage of cells in phase of the cell cycle) [1]: 14.8% | S (percentage of cells in phase of the cell cycle) [1]: 32.4% | SubG1 (percentage of cells in phase of the cell cycle) [1]: 4.9% | aneuploid (percentage of cells) [1]: 15.3% | Fold Increase over UTC (caspase-3 activity, apoptosis) (T47D cells; experiment of Table 10): 0.6 fold

328396 (antisense e[5mC]*eT*eG*eG*eT*dT*dG*dG*dG*dT*dA*dT*dG*dA*dG*eA*e[5mC]*eA*eG*eA) [compound 328396]
PEPCKc mRNA expression (PEPCK-c): 65 | IGFBP1 mRNA expression (IGFBP-1): 128 | Follistatin mRNA expression (follistatin): 135 | G1 (percentage of cells in phase of the cell cycle) [1]: 56.8% | G2/M (percentage of cells in phase of the cell cycle) [1]: 15% | S (percentage of cells in phase of the cell cycle) [1]: 28.2% | SubG1 (percentage of cells in phase of the cell cycle) [1]: 4.6% | aneuploid (percentage of cells) [1]: 19.8% | % cells aneuploid (HeLa cells; [2]): 88% | % cells in cell cycle phase G1 (HeLa cells; [2]): 94% | % cells in cell cycle phase G2/M (HeLa cells; [2]): 139% | % cells in cell cycle phase S (HeLa cells; [2]): 87% | % cells in cell cycle phase subG1 (HeLa cells; [2]): 97% | % cells in cell cycle phase: G1 (HeLa cells; 150 nM oligomeric compound): 89% | % cells in cell cycle phase: G2/M (HeLa cells; 150 nM oligomeric compound): 119% | % cells in cell cycle phase: S (HeLa cells; 150 nM oligomeric compound): 114% | % cells in cell cycle phase: aneuploid (HeLa cells; 150 nM oligomeric compound): 129% | % cells in cell cycle phase: subG1 (HeLa cells; 150 nM oligomeric compound): 88% | Fold Increase over UTC (caspase-3 activity, apoptosis) (T47D cells; experiment of Table 12): 0.8 fold

327947 (antisense eT*e[5mC]*eA*eG*eT*eT*eA*eT*e[5mC]*eA*e[5mC]*eA*eG*eT*eA*e[5mC]*eT*eG*eT*eA) [compound 327947]
% Activity Relative to UTC (tube formation) (HuVECs; Table 58): 81.5%

328377 (eT*e[5mC]*eA*e[5mC]*eT*d[5mC]*d[5mC]*dT*dA*dA*dA*dG*dG*dT*dT*e[5mC]*eA*eA*eG*eT; antisense) [compound 328377]
PEPCKc mRNA expression (PEPCK-c): 182 | IGFBP1 mRNA expression (IGFBP-1): 247 | Follistatin mRNA expression (follistatin): 159 | Fold Increase over UTC (caspase activity) (T47D cells): 0.7

327884 (antisense eG*e[5mC]*eA*eA*eA*eA*eA*eT*eG*eT*eG*e[5mC]*eT*eA*eG*eT*eG*e[5mC]*e[5mC]*eA*eA*eA) [compound 327884]
% Activity Relative to UTC (tube formation) (HuVECs; Table 56): 78.6%

CCGGCTGCAACACAAGACACGA (anti-miR; chemistry not fully specified) [ISIS 327958]
tube formation (HuVECs): suppressed tube formation

327932 (antisense eA*eG*eG*e[5mC]*eA*eT*eA*eG*eG*eA*eT*eG*eA*e[5mC]*eA*eA*eA*eG*eG*eG*eA*eA) [compound 327932]
% Activity Relative to UTC (tube formation) (HuVECs; Table 58): 51.9%

328342 (e[5mC]*eA*eA*eT*eT*dG*d[5mC]*dG*d[5mC]*dT*dA*d[5mC]*dA*dG*dA*eA*e[5mC]*eT*eG*eT) [compound 328342]
PEPCKc mRNA expression (PEPCK-c): 39 | IGFBP1 mRNA expression (IGFBP-1): 98 | Follistatin mRNA expression (follistatin): 88 | G1 (percentage of cells in phase of the cell cycle) [1]: 62.3% | G2/M (percentage of cells in phase of the cell cycle) [1]: 12.8% | S (percentage of cells in phase of the cell cycle) [1]: 24.9% | SubG1 (percentage of cells in phase of the cell cycle) [1]: 4.8% | aneuploid (percentage of cells) [1]: 15.2% | % cells aneuploid (HeLa cells; [2]): 67% | % cells in cell cycle phase G1 (HeLa cells; [2]): 33% | % cells in cell cycle phase G2/M (HeLa cells; [2]): 238% | % cells in cell cycle phase S (HeLa cells; [2]): 95% | % cells in cell cycle phase subG1 (HeLa cells; [2]): 192% | % cells in cell cycle phase: G1 (HeLa cells; 150 nM oligomeric compound): 55% | % cells in cell cycle phase: G2/M (HeLa cells; 150 nM oligomeric compound): 225% | % cells in cell cycle phase: S (HeLa cells; 150 nM oligomeric compound): 115% | % cells in cell cycle phase: aneuploid (HeLa cells; 150 nM oligomeric compound): 107% | % cells in cell cycle phase: subG1 (HeLa cells; 150 nM oligomeric compound): 189% | % cells in cell cycle phase G1 (HeLa cells; [5]): 96% | % cells in cell cycle phase G2/M (HeLa cells; [5]): 138% | % cells in cell cycle phase S (HeLa cells; [5]): 89% | % cells in cell cycle phase aneuploid (HeLa cells; [5]): 96% | % cells in cell cycle phase subG1 (HeLa cells; [5]): 103%
